# In ChEMBL document CHEMBL5532691, “Anti-cancer activity and mechanism of flurbiprofen organoselenium compound RY-1-92 in non-small cell lung cancer” (RSC Med Chem, 2024):
# Active and inactive are the calls of the source. The rule behind the calls is not given here.
# Tests used:
# NCI-H460 [1] = assay: Induction of apoptosis in human NCI-H460 cells assessed as necrotic cells at 30 uM measured after 48 hrs by annexin V-FITC/PI staining based flow cytometry analysis (reference value: 2.47%); assay type: functional
# A549 [2] = assay: Downregulation of ERK phosphorylation expression in human A549 cells at 10 to 30 uM by Western blot analysis; assay type: functional, cell-based; details: dose 10-30 µM
# A549 [3] = assay: Induction of apoptosis in human A549 cells assessed as necrotic cells at 10 uM measured after 48 hrs by annexin V-FITC/PI staining based flow cytometry analysis (reference value: 4.03%); assay type: functional
# Lewis lung carcinoma [4] = assay: Antitumor activity against mouse Lewis lung carcinoma cell line xenografted in C57BL/6 mouse model assessed as downregulation of cyclin B1 expression at 10 to 20 mg/kg by Western blot analysis; assay type: functional, organism-based; details: dose 10-20 mg/kg
# BEAS-2B = assay: Cytotoxicity against human BEAS-2B cells assessed as reduction in cell viability at 3 to 300 uM measured after 48 hrs by MTT assay; assay type: toxicity, cell-based; details: dose 3-300 µM
# NCI-H460 [5] = assay: Induction of apoptosis in human NCI-H460 cells assessed as late apoptotic cells at 10 uM measured after 48 hrs by annexin V-FITC/PI staining based flow cytometry analysis (reference value: 5.41%); assay type: functional
# A549 [6] = assay: Downregulation of JNK phosphorylation expression in human A549 cells at 10 to 30 uM by Western blot analysis; assay type: functional, cell-based; details: dose 10-30 µM
# NCI-H460 [7] = assay: Induction of apoptosis in human NCI-H460 cells assessed as early apoptotic cells at 30 uM measured after 48 hrs by annexin V-FITC/PI staining based flow cytometry analysis (reference value: 0.32%); assay type: functional
# A549 [8] = assay: Induction of apoptosis in human A549 cells assessed as viable cells at 10 uM measured after 48 hrs by annexin V-FITC/PI staining based flow cytometry analysis (reference value: 80.26%); assay type: functional; details: read-out: Activity
# NCI-H460 [9] = assay: Induction of apoptosis in human NCI-H460 cells assessed as late apoptotic cells at 30 uM measured after 48 hrs by annexin V-FITC/PI staining based flow cytometry analysis (reference value: 5.41%); assay type: functional
# Lewis lung carcinoma [10] = assay: Antitumor activity against mouse Lewis lung carcinoma cell line xenografted in C57BL/6 mouse model assessed as increase in bax protein expression at 10 to 20 mg/kg by Western blot analysis; assay type: functional, organism-based; details: dose 10-20 mg/kg
# A549 [11] = assay: Induction of apoptosis in human A549 cells assessed as necrotic cells at 30 uM measured after 48 hrs by annexin V-FITC/PI staining based flow cytometry analysis (reference value: 4.03%); assay type: functional
# A549 [12] = assay: Induction of apoptosis in human A549 cells assessed as late apoptotic cells at 30 uM measured after 48 hrs by annexin V-FITC/PI staining based flow cytometry analysis (reference value: 15.12%); assay type: functional
# A549 [13] = assay: Downregulation of P38 phosphorylation expression in human A549 cells at 10 to 30 uM by Western blot analysis; assay type: functional, cell-based; details: dose 10-30 µM
# NCI-H460 [14] = assay: Downregulation of TRPV1 expression level in human NCI-H460 cells at 10 to 30 uM by Western blot analysis; assay type: functional, cell-based; details: dose 10-30 µM
# A549 [15] = assay: Downregulation of cyclin B1 protein expression in human A549 cells at 10 to 30 uM by Western blot analysis; assay type: functional, cell-based; details: dose 10-30 µM
# Lewis lung carcinoma [16] = assay: Antitumor activity against mouse Lewis lung carcinoma cell line xenografted in C57BL/6 mouse model assessed as increase in Bax/Bcl2 ratio at 10 to 20 mg/kg by Western blot analysis; assay type: functional, organism-based; details: dose 10-20 mg/kg
# A549 [17] = assay: Induction of apoptosis in human A549 cells assessed as late apoptotic cells at 10 uM measured after 48 hrs by annexin V-FITC/PI staining based flow cytometry analysis (reference value: 15.12%); assay type: functional
# A549 [18] = assay: Induction of apoptosis in human A549 cells assessed as early apoptotic cells at 30 uM measured after 48 hrs by annexin V-FITC/PI staining based flow cytometry analysis (reference value: 0.59%); assay type: functional
# NCI-H460 [19] = assay: Induction of apoptosis in human NCI-H460 cells assessed as viable cells at 10 uM measured after 48 hrs by annexin V-FITC/PI staining based flow cytometry analysis (reference value: 91.81%); assay type: functional; details: read-out: Activity
# Lewis lung carcinoma [20] = assay: Antitumor activity against mouse Lewis lung carcinoma cell line xenografted in C57BL/6 mouse model assessed as reduction in tumor weight at 10 to 20 mg/kg, ip measured every three days for 15 days […]; assay type: functional, organism-based; details: dose 10-20 mg/kg, time 15.0 day
# NCI-H460 [21] = assay: Inhibition of cell migration in human NCI-H460 cells at 10 to 30 uM measured after 24 hrs by wound healing assay relative to control; assay type: functional; details: dose 10-30 µM
# A549 [22] = assay: Inhibition of colony formation in human A549 cells at 10 uM measured after 48 hrs by giemsa staining based analysis relative to control; assay type: functional
# A549 [23] = assay: Downregulation of TRPV1 expression level in human A549 cells at 10 to 30 uM by Western blot analysis; assay type: functional, cell-based; details: dose 10-30 µM
# A549 [24] = assay: Induction of cell cycle arrest in human A549 cells assessed as accumulation of cells as G2 phase at 30 uM measured after 24 hrs by propidium iodide staining based flow cytometry analysis (reference value: 8.69%); assay type: functional
# A549 [25] = assay: Induction of cell cycle arrest in human A549 cells assessed as accumulation of cells as S phase at 30 uM measured after 24 hrs by propidium iodide staining based flow cytometry analysis (reference value: 19.57%); assay type: functional
# NCI-H460 [26] = assay: Downregulation of CDK1 protein expression in human NCI-H460 cells at 30 uM by Western blot analysis; assay type: functional, cell-based
# A549 [27] = assay: Antiproliferative activity against human A549 cells assessed as inhibition of cell growth incubated for 48 hrs by MTT assay; assay type: functional, cell-based
# NCI-H460 [28] = assay: Induction of cell cycle arrest in human NCI-H460 cells assessed as accumulation of cells as S phase at 10 uM measured after 24 hrs by propidium iodide staining based flow cytometry analysis (reference value: 7.09%); assay type: functional
# NCI-H460 [29] = assay: Downregulation of JNK phosphorylation expression in human NCI-H460 cells at 10 to 30 uM by Western blot analysis; assay type: functional, cell-based; details: dose 10-30 µM
# NCI-H460 [30] = assay: Induction of apoptosis in human NCI-H460 cells assessed as early apoptotic cells at 10 uM measured after 48 hrs by annexin V-FITC/PI staining based flow cytometry analysis (reference value: 0.32%); assay type: functional
smiles,measurement,setting,value
CC(C(=O)NCCC[Se]C(F)(F)F)c1ccc(-c2ccccc2)c(F)c1 (configuration not stated),Activity,NCI-H460 [1],6.76%
same,Activity,A549 [2],Active
same,Activity,A549 [3],3.99%
same,Activity,Lewis lung carcinoma [4],Active
same,Activity,BEAS-2B,Toxic
same,Activity,NCI-H460 [5],6.97%
same,Activity,A549 [6],Active
same,Activity,NCI-H460 [7],1.97%
same,viability at 10 µM,A549 [8],74.6%
same,Activity,NCI-H460 [9],17.28%
same,Activity,Lewis lung carcinoma [10],Active
same,Activity,A549 [11],8.86%
same,Activity,A549 [12],35.06%
same,Activity,A549 [13],Active
same,Activity,NCI-H460 [14],Active
same,Activity,A549 [15],Active
same,Activity,Lewis lung carcinoma [16],Active
same,Activity,A549 [17],20.25%
same,Activity,A549 [18],1.13%
same,viability at 10 µM,NCI-H460 [19],91%
same,Activity,Lewis lung carcinoma [20],Active
same,inhibition (INH),NCI-H460 [21],47.5%
same,inhibition at 10 µM,A549 [22],45%
same,Activity,A549 [23],Active
same,Activity,A549 [24],39.92%
same,Activity,A549 [25],52.63%
same,Activity,NCI-H460 [26],Active
same,IC50,"A549 [27]; A549, 48 h",41.9 µM
same,Activity,A549 [27]; dose 3-300 µM,Dose-Dependent Effect
same,Activity,NCI-H460 [28],10.6%
same,Activity,NCI-H460 [29],Active
same,Activity,NCI-H460 [30],0.36%
